According to ChEMBL document CHEMBL5608246, “Membrane-Targeting Amphiphilic Honokiol Derivatives Containing an Oxazole Moiety as Potential Antibacterials against Methicillin-Resistant Staphylococcus aureus” (J Med Chem, 2024):
The source made the active and inactive calls. The calls are words filed in the database; no cut-off is given here.

Tests used:
Cell membrane [1] = test: Induction of membrane disruption in methicillin resistant Staphylococcus aureus 20 assessed as membrane rupture at 16 times MIC incubated for 4 hrs by SEM analysis
Cell membrane [2] = test: Induction of membrane depolarization in methicillin resistant Staphylococcus aureus 20 assessed as fold increase in fluorescence intensity at 32 times MIC measured at 2 mins interval over 20 mins by DiSC3(5) staining based assay relative to control; type: cell membranes
Staphylococcus aureus [3] = test: Antibacterial activity against methicillin resistant Staphylococcus aureus 20 incubated for 16 to 18 hrs in presence of 2 to 64 ug/ml phosphatidylethanolamine by checkerboard broth dilution method; type: functional, organism-based; settings: time 16-18 hrs
Staphylococcus aureus [4] = test: Inhibition of proline synthesis in methicillin resistant Staphylococcus aureus N315 at 4 ug/ml incubated for 4 hrs by RNA-sequencing analysis; type: functional, organism-based; settings: dose 4.0 µg/ml
Staphylococcus aureus [5] = test: Inhibition of methionine synthesis in methicillin resistant Staphylococcus aureus N315 at 4 ug/ml incubated for 4 hrs by RNA-sequencing analysis; type: functional, organism-based; settings: dose 4.0 µg/ml
[6] = Toxicity in Kunming mouse assessed as change in albumin level at 20 mg/kg, sc measured after 24 hrs; type: organism-based; settings: in vivo
[7] = Toxicity in Kunming mouse assessed as liver abnormalities at 10 mg/kg, sc measured after 24 hrs; type: organism-based; settings: in vivo
[8] = Toxicity in Kunming mouse skin abscess model infected with methicillin resistant Staphylococcus aureus assessed as spleen damage at 5 to 10 mg/kg, sc measured after 2 hrs by H and E staining based assay; type: organism-based; settings: in vivo, dose 5-10 mg/kg

## C=CCc1cc(-c2ccc(OCCC[N+](C)(C)CC(=O)NCCCC)c(CC=C)c2)c2oc(-c3c(Cl)cccc3Cl)nc2c1.[Br-]
Cell membrane [1]
  Activity: Active
Cell membrane [2]
  fold change (FC): 8
Staphylococcus aureus [3]
  Activity: Active
Staphylococcus aureus [4]
  inhibition: Active
Staphylococcus aureus [5]
  inhibition: Active
[6]
  Activity: Non-Toxic
[7]
  Activity: Non-Toxic
[8]
  Activity: Non-Toxic
